# Laboratory results published in ChEMBL document CHEMBL4219063, “New photodynamic molecular beacons (PMB) as potential cancer-targeted agents in PDT” (Bioorg Med Chem, 2018).
# Activity calls are given as the source filed them. No cut-off for these calls is given here. Square brackets hold non-standard residues; d marks the D form. Peptide text beside a SMILES is read from it. * marks the point of attachment. ξ: configuration not given here. Benzoyl(4-TriPhPorphyrinyl) = O=C(c1ccc(-c2c3nc(c(-c4ccccc4)c4ccc([nH]4)c(-c4ccccc4)c4nc(c(-c5ccccc5)c5ccc2[nH]5)C=C4)C=C3)cc1)*; Pyropheophorbide(a) = C=Cc1c(C)c2cc3nc(c4c5[nH]c(cc6nc(cc1[nH]2)C(C)=C6CC)c(C)c5C(=O)C4)[C@@H](CCC(=O)*)[C@@H]3C; X2 = COc1cc(/N=N/c2cc3c4c(c2OCCCCCC(=O)*)CCCN4CCC3)c(OC)cc1/N=N/c1ccc([N+](=O)[O-])cc1; X1 = CCN(CC)c1ccc2nc3ccc(/N=N/c4ccc(N(C)CCCC(=O)*)cc4)cc3[n+](-c3ccccc3)c2c1; ξThr(3R) = C[C@@H](O)C(N)C(=O)O; AEEA = NCCOCCOCC(=O)O
# What was measured:
# [1] = molecular target: MMP14 (Homo sapiens, UniProt P50281); assay: Substrate activity at MMP14 (unknown origin) assessed as enzyme-mediated substrate hydrolysis at 100 umol/L after 8 hrs by UV-HPLC method relative to control; assay type: ADME; conditions: read-out: Drug metabolism
# [2] = molecular target: MMP2 (Homo sapiens, UniProt P08253); assay: Substrate activity at MMP2 (unknown origin) assessed as enzyme-mediated substrate hydrolysis at 100 umol/L after 8 hrs by UV-HPLC method relative to control; assay type: ADME; conditions: read-out: Drug metabolism
# Chain of MMP2 (P08253 whole entry): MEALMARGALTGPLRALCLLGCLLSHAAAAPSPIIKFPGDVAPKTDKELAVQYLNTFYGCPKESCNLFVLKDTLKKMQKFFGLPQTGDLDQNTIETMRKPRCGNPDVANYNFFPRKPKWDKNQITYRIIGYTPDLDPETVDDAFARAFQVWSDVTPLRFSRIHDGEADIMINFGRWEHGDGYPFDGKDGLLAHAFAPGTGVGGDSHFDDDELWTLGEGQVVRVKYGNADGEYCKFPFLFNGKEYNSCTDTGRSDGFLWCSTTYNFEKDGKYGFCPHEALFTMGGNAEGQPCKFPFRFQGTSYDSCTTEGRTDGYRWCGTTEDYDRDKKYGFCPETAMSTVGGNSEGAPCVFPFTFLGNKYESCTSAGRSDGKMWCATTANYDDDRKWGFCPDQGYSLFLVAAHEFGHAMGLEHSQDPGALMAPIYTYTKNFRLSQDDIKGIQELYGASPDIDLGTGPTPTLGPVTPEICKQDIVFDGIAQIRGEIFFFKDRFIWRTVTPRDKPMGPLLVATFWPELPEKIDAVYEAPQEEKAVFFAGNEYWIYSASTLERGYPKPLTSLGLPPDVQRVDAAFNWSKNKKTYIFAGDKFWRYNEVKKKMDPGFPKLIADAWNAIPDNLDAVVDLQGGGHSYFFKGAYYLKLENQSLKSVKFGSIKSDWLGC
# [3] = In vitro photodynamic activity in ethanol assessed as fluorescence quenching by time-correlated single photon counting method; assay type: functional
# [4] = In vitro photodynamic activity in ethanol assessed as decrease in singlet oxygen production by spectrophotometry; assay type: functional; parameters: scale not given: the % may be the effect or the level left
# [5] = molecular target: MMP9 (Homo sapiens, UniProt P14780); assay: Substrate activity at MMP9 (unknown origin) assessed as enzyme-mediated substrate hydrolysis at 100 umol/L after 8 hrs by UV-HPLC method relative to control; assay type: ADME; conditions: read-out: Drug metabolism
# Chain of MMP9 (P14780 whole entry): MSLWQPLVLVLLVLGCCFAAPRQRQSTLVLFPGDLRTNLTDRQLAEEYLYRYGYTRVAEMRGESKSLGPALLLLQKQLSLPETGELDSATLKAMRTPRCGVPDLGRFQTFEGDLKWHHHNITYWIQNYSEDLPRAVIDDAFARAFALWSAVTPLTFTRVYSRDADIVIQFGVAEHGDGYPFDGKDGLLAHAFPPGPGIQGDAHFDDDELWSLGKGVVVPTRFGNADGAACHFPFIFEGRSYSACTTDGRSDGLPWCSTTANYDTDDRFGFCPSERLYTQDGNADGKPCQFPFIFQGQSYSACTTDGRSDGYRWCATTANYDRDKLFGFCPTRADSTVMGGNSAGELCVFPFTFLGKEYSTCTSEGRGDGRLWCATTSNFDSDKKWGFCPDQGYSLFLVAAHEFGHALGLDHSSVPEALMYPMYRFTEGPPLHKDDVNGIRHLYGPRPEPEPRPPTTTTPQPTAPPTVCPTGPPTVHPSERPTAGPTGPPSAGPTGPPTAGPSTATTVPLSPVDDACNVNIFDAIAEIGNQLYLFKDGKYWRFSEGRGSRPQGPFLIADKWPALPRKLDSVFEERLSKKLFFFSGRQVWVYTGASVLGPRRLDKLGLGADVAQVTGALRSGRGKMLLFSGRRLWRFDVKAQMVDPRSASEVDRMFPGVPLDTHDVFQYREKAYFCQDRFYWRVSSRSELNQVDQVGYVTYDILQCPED
# [6] = molecular target: Matrix metalloproteinase-14 (Mus musculus) (UniProt P53690); assay: Substrate activity at MT1-MMP in mouse B16F1 cells assessed as enzyme-mediated substrate cleavage at 100 uM after 24 hrs by HPLC analysis; assay type: cell-based
"metabolised at 8 h, 100 µM [1] [%]","metabolised at 8 h, 100 µM [2] [%]",Molecule,Activity [3] [%],Activity [4] [%],also measured
31,–,CC[C@H](C)[C@H](NC(=O)[C@H](CCCNC(=N)N)NC(=O)CN)C(=O)NCC(=O)N[C@@H](Cc1ccccc1)C(=O)N[C@@H](CC(C)C)C(=O)N[C@@H](CCCNC(=N)N)C(=O)N[C@H](C(=O)N[C@@H](C)C(=O)N[C@@H](CCCCNC(=O)CCCCCOc1c(/N=N/c2cc(OC)c(/N=N/c3ccc([N+](=O)[O-])cc3)cc2OC)cc2c3c1CCCN3CCC2)C(=O)NCC(=O)NCC(=O)O)[C@@H](C)O,–,–,–
100,20,CC[C@H](C)[C@H](NC(=O)[C@H](CCCNC(=N)N)NC(=O)CNC(=O)COCCOCCN)C(=O)NCC(=O)N[C@@H](Cc1ccccc1)C(=O)N[C@@H](CC(C)C)C(=O)N[C@@H](CCCNC(=N)N)C(=O)N[C@H](C(=O)N[C@@H](C)C(=O)N[C@@H](CCCCN)C(=O)NCC(=O)NCC(=O)O)[C@@H](C)O (H-[AEEA]GRIGFLRTAKGG-OH),–,–,–
–,3,CC[C@H](C)[C@H](NC(=O)[C@H](CCCNC(=N)N)NC(=O)CNC(=O)COCCOCCNC(=O)c1ccc(-c2c3nc(c(-c4ccccc4)c4ccc([nH]4)c(-c4ccccc4)c4nc(c(-c5ccccc5)c5ccc2[nH]5)C=C4)C=C3)cc1)C(=O)NCC(=O)N[C@@H](Cc1ccccc1)C(=O)N[C@@H](CC(C)C)C(=O)N[C@@H](CCCNC(=N)N)C(=O)N[C@H](C(=O)N[C@@H](C)C(=O)N[C@@H](CCCCN)C(=O)NCC(=O)NCC(=O)O)[C@@H](C)O ({Benzoyl(4-TriPhPorphyrinyl)-AEEA}-GRIGFLRTAKGG-OH),–,–,"metabolised at 8 h, 100 µM [5]: 2%"
99,26,H-GRIGFLRTAKGG-OH,–,–,–

# Second part, the molecule before the results:
Molecule,"metabolised at 8 h, 100 µM [1] [%]","metabolised at 8 h, 100 µM [2] [%]",Activity [3] [%],Activity [4] [%],also measured
CC[C@H](C)[C@H](NC(=O)[C@H](CCCNC(=N)N)NC(=O)CN)C(=O)NCC(=O)N[C@@H](Cc1ccccc1)C(=O)N[C@@H](CC(C)C)C(=O)N[C@@H](CCCNC(=N)N)C(=O)NC(C(=O)N[C@@H](C)C(=O)N[C@@H](CCCCNC(=O)CCCN(C)c1ccc(/N=N/c2ccc3nc4ccc(N(CC)CC)cc4[n+](-c4ccccc4)c3c2)cc1)C(=O)NCC(=O)NCC(=O)O)[C@@H](C)O (stereo partly drawn) (H-GRIGFLR[ξThr(3R)]AK(X1)GG-OH),86,26,–,–,–
CC[C@H](C)[C@H](NC(=O)[C@H](CCCNC(=N)N)NC(=O)CNC(=O)COCCOCCNC(=O)c1ccc(-c2c3nc(c(-c4ccccc4)c4ccc([nH]4)c(-c4ccccc4)c4nc(c(-c5ccccc5)c5ccc2[nH]5)C=C4)C=C3)cc1)C(=O)NCC(=O)N[C@@H](Cc1ccccc1)C(=O)N[C@@H](CC(C)C)C(=O)N[C@@H](CCCNC(=N)N)C(=O)N[C@H](C(=O)N[C@@H](C)C(=O)N[C@@H](CCCCNC(=O)CCCN(C)c1ccc(/N=N/c2ccc3nc4ccc(N(CC)CC)cc4[n+](-c4ccccc4)c3c2)cc1)C(=O)NCC(=O)NCC(=O)O)[C@@H](C)O ({Benzoyl(4-TriPhPorphyrinyl)-AEEA}-GRIGFLRTAK(X1)GG-OH),–,–,80,100,–
CC[C@H](C)[C@H](NC(=O)[C@H](CCCNC(=N)N)NC(=O)CNC(=O)c1ccc(-c2c3nc(c(-c4ccccc4)c4ccc([nH]4)c(-c4ccccc4)c4nc(c(-c5ccccc5)c5ccc2[nH]5)C=C4)C=C3)cc1)C(=O)NCC(=O)N[C@@H](Cc1ccccc1)C(=O)N[C@@H](CC(C)C)C(=O)N[C@@H](CCCNC(=N)N)C(=O)N[C@H](C(=O)N[C@@H](C)C(=O)N[C@@H](CCCCNC(=O)CCCN(C)c1ccc(/N=N/c2ccc3nc4ccc(N(CC)CC)cc4[n+](-c4ccccc4)c3c2)cc1)C(=O)NCC(=O)NCC(=O)O)[C@@H](C)O ({Benzoyl(4-TriPhPorphyrinyl)}-GRIGFLRTAK(X1)GG-OH),–,–,80,100,–
CC[C@H](C)[C@H](NC(=O)[C@H](CCCNC(=N)N)NC(=O)CNC(=O)c1ccc(-c2c3nc(c(-c4ccccc4)c4ccc([nH]4)c(-c4ccccc4)c4nc(c(-c5ccccc5)c5ccc2[nH]5)C=C4)C=C3)cc1)C(=O)NCC(=O)N[C@@H](Cc1ccccc1)C(=O)N[C@@H](CC(C)C)C(=O)N[C@@H](CCCNC(=N)N)C(=O)N[C@H](C(=O)N[C@@H](C)C(=O)N[C@@H](CCCCNC(=O)CCCCCOc1c(/N=N/c2cc(OC)c(/N=N/c3ccc([N+](=O)[O-])cc3)cc2OC)cc2c3c1CCCN3CCC2)C(=O)NCC(=O)NCC(=O)O)[C@@H](C)O ({Benzoyl(4-TriPhPorphyrinyl)}-GRIGFLRTAK(X2)GG-OH),–,–,90,80,Activity [6]: Active
C=Cc1c(C)c2cc3nc(c4c5[nH]c(cc6nc(cc1[nH]2)C(C)=C6CC)c(C)c5C(=O)C4)[C@@H](CCC(=O)NCC(=O)N[C@@H](CCCNC(=N)N)C(=O)N[C@H](C(=O)NCC(=O)N[C@@H](Cc1ccccc1)C(=O)N[C@@H](CC(C)C)C(=O)N[C@@H](CCCNC(=N)N)C(=O)N[C@H](C(=O)N[C@@H](C)C(=O)N[C@@H](CCCCNC(=O)CCCN(C)c1ccc(/N=N/c2ccc4nc5ccc(N(CC)CC)cc5[n+](-c5ccccc5)c4c2)cc1)C(=O)NCC(=O)NCC(=O)O)[C@@H](C)O)[C@@H](C)CC)[C@@H]3C ({Pyropheophorbide(a)}-GRIGFLRTAK(X1)GG-OH),–,–,93,100,–
C=Cc1c(C)c2cc3nc(c4c5[nH]c(cc6nc(cc1[nH]2)C(C)=C6CC)c(C)c5C(=O)C4)[C@@H](CCC(=O)NCC(=O)N[C@@H](CCCNC(=N)N)C(=O)N[C@H](C(=O)NCC(=O)N[C@@H](Cc1ccccc1)C(=O)N[C@@H](CC(C)C)C(=O)N[C@@H](CCCNC(=N)N)C(=O)N[C@H](C(=O)N[C@@H](C)C(=O)N[C@@H](CCCCNC(=O)CCCCCOc1c(/N=N/c2cc(OC)c(/N=N/c4ccc([N+](=O)[O-])cc4)cc2OC)cc2c4c1CCCN4CCC2)C(=O)NCC(=O)NCC(=O)O)[C@@H](C)O)[C@@H](C)CC)[C@@H]3C ({Pyropheophorbide(a)}-GRIGFLRTAK(X2)GG-OH),–,–,88,77,–
C=Cc1c(C)c2cc3nc(c4c5[nH]c(cc6nc(cc1[nH]2)C(C)=C6CC)c(C)c5C(=O)C4)[C@@H](CCC(=O)NCC(=O)N[C@@H](CCCNC(=N)N)C(=O)N[C@H](C(=O)NCC(=O)N[C@@H](Cc1ccccc1)C(=O)N[C@@H](CC(C)C)C(=O)N[C@@H](CCCNC(=N)N)C(=O)N[C@H](C(=O)N[C@@H](C)C(=O)N[C@@H](CCCCN)C(=O)NCC(=O)NCC(=O)O)[C@@H](C)O)[C@@H](C)CC)[C@@H]3C ({Pyropheophorbide(a)}-GRIGFLRTAKGG-OH),–,–,–,–,"metabolised at 8 h, 100 µM [5]: 5%"
